Literature values in patent US20090018199A1, “Methods of Administering 3, 3, 14, 14 Tetramethyl Hexadecane 1, 16 Dioic Acid” (SYNDROME X LTD., priority 2003, published 2009).

Tested on: patients
Conditions: follow-up 15 years total, patients randomized to niacin

O=C(O)c1cccnc1 [Niacin, niacin]
decrease in all-cause mortality: 11%
